From PubChem BioAssay AID1259407 (Chemical Carcinogenesis Research Information System (CCRIS), 2018)
Calls of active or inactive are those of the source. The rule behind the calls is not given here.

System: CCRIS mutagenicity, Ames/micronucleus/aberration tests
Test: CCRIS mutagenicity studies
[1] = Test System: AMES SALMONELLA TYPHIMURIUM, Strain/Indicator: TA97, Metabolic Activation: NONE, Method: PREINCUBATION
[2] = Test System: AMES SALMONELLA TYPHIMURIUM, Strain/Indicator: TA98, Metabolic Activation: NONE, Method: PREINCUBATION
[3] = Test System: AMES SALMONELLA TYPHIMURIUM, Strain/Indicator: TA100, Metabolic Activation: NONE, Method: PREINCUBATION
[4] = Test System: AMES SALMONELLA TYPHIMURIUM, Strain/Indicator: TA1535, Metabolic Activation: NONE, Method: PREINCUBATION
[5] = Test System: AMES SALMONELLA TYPHIMURIUM, Strain/Indicator: TA1537, Metabolic Activation: NONE, Method: STANDARD PLATE
[6] = Test System: MOUSE LYMPHOMA, Strain/Indicator: L5178Y (TK+/TK-), Metabolic Activation: RAT, LIVER, S-9, AROCLOR 1254, Method: SUSPENSION/PLATE

## CCCCCCCCCCC1CO1 (stereo not drawn)
Test System: AMES SALMONELLA TYPHIMURIUM, Strain/Indicator: TA97, Metabolic Activation: HAMSTER, LIVER, S-9, AROCLOR 1254 (30%), Method: PREINCUBATION
  mutagenic call: inactive; negative
[1]
  mutagenic call: inactive; negative
Test System: AMES SALMONELLA TYPHIMURIUM, Strain/Indicator: TA97, Metabolic Activation: RAT, LIVER, S-9, AROCLOR 1254 (10% & 30%), Method: PREINCUBATION
  mutagenic call: inactive; negative
Test System: AMES SALMONELLA TYPHIMURIUM, Strain/Indicator: TA98, Metabolic Activation: HAMSTER, LIVER, S-9, AROCLOR 1254 (10% & 30%), Method: PREINCUBATION
  mutagenic call: inactive; negative
[2]
  mutagenic call: inactive; negative
Test System: AMES SALMONELLA TYPHIMURIUM, Strain/Indicator: TA98, Metabolic Activation: RAT, LIVER, S-9, AROCLOR 1254 (10% & 30%), Method: PREINCUBATION
  mutagenic call: inactive; negative
Test System: AMES SALMONELLA TYPHIMURIUM, Strain/Indicator: TA100, Metabolic Activation: HAMSTER, LIVER, S-9, AROCLOR 1254 (10% & 30%), Method: PREINCUBATION
  mutagenic call: inactive; negative
[3]
  mutagenic call: inactive; negative
Test System: AMES SALMONELLA TYPHIMURIUM, Strain/Indicator: TA100, Metabolic Activation: RAT, LIVER, S-9, AROCLOR 1254 (10% & 30%), Method: PREINCUBATION
  mutagenic call: inactive; negative
Test System: AMES SALMONELLA TYPHIMURIUM, Strain/Indicator: TA1535, Metabolic Activation: HAMSTER, LIVER, S-9, AROCLOR 1254 (10% & 30%), Method: PREINCUBATION
  mutagenic call: inactive; negative
[4]
  mutagenic call: inactive; negative
Test System: AMES SALMONELLA TYPHIMURIUM, Strain/Indicator: TA1535, Metabolic Activation: RAT, LIVER, S-9, AROCLOR 1254 (10% & 30%), Method: PREINCUBATION
  mutagenic call: inactive; negative
Test System: AMES SALMONELLA TYPHIMURIUM, Strain/Indicator: TA1537, Metabolic Activation: HAMSTER, LIVER, S-9, AROCLOR 1254 (10% & 30%), Method: PREINCUBATION
  mutagenic call: inactive; negative
Test System: AMES SALMONELLA TYPHIMURIUM, Strain/Indicator: TA1537, Metabolic Activation: NONE, Method: PREINCUBATION
  mutagenic call: inactive; negative
Test System: AMES SALMONELLA TYPHIMURIUM, Strain/Indicator: TA1537, Metabolic Activation: RAT, LIVER, S-9, AROCLOR 1254 (10% & 30%), Method: PREINCUBATION
  mutagenic call: inactive; negative
Test System: UDS MOUSE EPIDERMIS IN VIVO/IN VITRO, Strain/Indicator: HOS:HR-1/THYMIDINE INCORPORATION, Metabolic Activation: NONE, Method: LIQUID SCINTILLATION
  mutagenic call: inactive; negative

## COc1ccc(Nc2c3ccccc3nc3ccccc23)cc1
[5]
  mutagenic call: active; positive

## O=[N+]([O-])c1ccnc2ccccc12
Test System: AMES SALMONELLA TYPHIMURIUM, Strain/Indicator: TA1538, Metabolic Activation: RAT, LIVER, S-9, KC500 OR PHENOBARBITAL, Method: LIQUID SUSPENSION
  mutagenic call: active; positive
Test System: UDS RODENT PRIMARY CELLS, Strain/Indicator: THY INCORP (NON-S-PHASE), Metabolic Activation: NONE, Method: AUTORADIOGRAPHY
  mutagenic call: active; positive

## Cc1ccccc1C#N
Test System: AMES SALMONELLA TYPHIMURIUM, Strain/Indicator: TA97, Metabolic Activation: HAMSTER, LIVER, S-9, AROCLOR 1254 (10 OR 30%), Method: PREINCUBATION
  mutagenic call: inactive; negative
[1]
  mutagenic call: inactive; negative
Test System: AMES SALMONELLA TYPHIMURIUM, Strain/Indicator: TA97, Metabolic Activation: RAT, LIVER, S-9, AROCLOR 1254 (10%), Method: PREINCUBATION
  mutagenic call: inactive; negative
Test System: AMES SALMONELLA TYPHIMURIUM, Strain/Indicator: TA97, Metabolic Activation: RAT, LIVER, S-9, AROCLOR 1254 (30%), Method: PREINCUBATION
  mutagenic call: inactive; negative
Test System: AMES SALMONELLA TYPHIMURIUM, Strain/Indicator: TA98, Metabolic Activation: HAMSTER, LIVER, S-9, AROCLOR 1254 (10 OR 30%), Method: PREINCUBATION
  mutagenic call: inactive; negative
[2]
  mutagenic call: inactive; negative
Test System: AMES SALMONELLA TYPHIMURIUM, Strain/Indicator: TA98, Metabolic Activation: RAT, LIVER, S-9, AROCLOR 1254 (10 OR 30%), Method: PREINCUBATION
  mutagenic call: inactive; negative
Test System: AMES SALMONELLA TYPHIMURIUM, Strain/Indicator: TA100, Metabolic Activation: HAMSTER, LIVER, S-9, AROCLOR 1254 (10 OR 30%), Method: PREINCUBATION
  mutagenic call: inactive; negative
[3]
  mutagenic call: inactive; negative
Test System: AMES SALMONELLA TYPHIMURIUM, Strain/Indicator: TA100, Metabolic Activation: RAT, LIVER, S-9, AROCLOR 1254 (10%), Method: PREINCUBATION
  mutagenic call: inactive; negative
Test System: AMES SALMONELLA TYPHIMURIUM, Strain/Indicator: TA100, Metabolic Activation: RAT, LIVER, S-9, AROCLOR 1254 (30%), Method: PREINCUBATION
  mutagenic call: inactive; negative
Test System: AMES SALMONELLA TYPHIMURIUM, Strain/Indicator: TA1535, Metabolic Activation: HAMSTER, LIVER, S-9, AROCLOR 1254 (10 OR 30%), Method: PREINCUBATION
  mutagenic call: inactive; negative
[4]
  mutagenic call: inactive; negative
Test System: AMES SALMONELLA TYPHIMURIUM, Strain/Indicator: TA1535, Metabolic Activation: RAT, LIVER, S-9, AROCLOR 1254 (10%), Method: PREINCUBATION
  mutagenic call: inactive; negative
Test System: AMES SALMONELLA TYPHIMURIUM, Strain/Indicator: TA1535, Metabolic Activation: RAT, LIVER, S-9, AROCLOR 1254 (30%), Method: PREINCUBATION
  mutagenic call: inactive; negative
[6]
  mutagenic call: active; positive. reevaluation of results: positive
Test System: Mouse lymphoma, Strain/Indicator: L5178Y (tk+/tk-), Metabolic Activation: None, Method: Suspension/plate
  mutagenic call: inactive; negative

## C=C[Si](C)(Cl)Cl
Test System: AMES SALMONELLA TYPHIMURIUM, Strain/Indicator: TA98, Metabolic Activation: HAMSTER, LIVER, S-9, AROCLOR 1254 (10%), Method: STANDARD PLATE
  mutagenic call: inactive; negative
Test System: AMES SALMONELLA TYPHIMURIUM, Strain/Indicator: TA98, Metabolic Activation: NONE, Method: STANDARD PLATE
  mutagenic call: inactive; negative
Test System: AMES SALMONELLA TYPHIMURIUM, Strain/Indicator: TA98, Metabolic Activation: RAT, LIVER, S-9, AROCLOR 1254 (10%), Method: STANDARD PLATE
  mutagenic call: inactive; negative
Test System: AMES SALMONELLA TYPHIMURIUM, Strain/Indicator: TA100, Metabolic Activation: HAMSTER, LIVER, S-9, AROCLOR 1254 (10%), Method: STANDARD PLATE
  mutagenic call: inactive; negative
Test System: AMES SALMONELLA TYPHIMURIUM, Strain/Indicator: TA100, Metabolic Activation: NONE, Method: STANDARD PLATE
  mutagenic call: inactive; negative
Test System: AMES SALMONELLA TYPHIMURIUM, Strain/Indicator: TA100, Metabolic Activation: RAT, LIVER, S-9, AROCLOR 1254 (10%), Method: STANDARD PLATE
  mutagenic call: inactive; negative
Test System: AMES SALMONELLA TYPHIMURIUM, Strain/Indicator: TA1535, Metabolic Activation: HAMSTER, LIVER, S-9, AROCLOR 1254 (10%), Method: STANDARD PLATE
  mutagenic call: active; positive
Test System: AMES SALMONELLA TYPHIMURIUM, Strain/Indicator: TA1535, Metabolic Activation: NONE, Method: STANDARD PLATE
  mutagenic call: inactive; negative
Test System: AMES SALMONELLA TYPHIMURIUM, Strain/Indicator: TA1535, Metabolic Activation: RAT, LIVER, S-9, AROCLOR 1254 (10%), Method: STANDARD PLATE
  mutagenic call: inactive; negative
Test System: AMES SALMONELLA TYPHIMURIUM, Strain/Indicator: TA1537, Metabolic Activation: HAMSTER, LIVER, S-9, AROCLOR 1254 (10%), Method: STANDARD PLATE
  mutagenic call: inactive; negative
[5]
  mutagenic call: inactive; negative
Test System: AMES SALMONELLA TYPHIMURIUM, Strain/Indicator: TA1537, Metabolic Activation: RAT, LIVER, S-9, AROCLOR 1254 (10%), Method: STANDARD PLATE
  mutagenic call: inactive; negative
Test System: AMES SALMONELLA TYPHIMURIUM, Strain/Indicator: TA1538, Metabolic Activation: HAMSTER, LIVER, S-9, AROCLOR 1254 (10%), Method: STANDARD PLATE
  mutagenic call: inactive; negative
Test System: AMES SALMONELLA TYPHIMURIUM, Strain/Indicator: TA1538, Metabolic Activation: NONE, Method: STANDARD PLATE
  mutagenic call: inactive; negative
Test System: AMES SALMONELLA TYPHIMURIUM, Strain/Indicator: TA1538, Metabolic Activation: RAT, LIVER, S-9, AROCLOR 1254 (10%), Method: STANDARD PLATE
  mutagenic call: inactive; negative
Test System: MOUSE LYMPHOMA, Strain/Indicator: L5178Y (TK+/TK-), Metabolic Activation: NONE, Method: SUSPENSION/PLATE
  mutagenic call: inactive; negative. reevaluation of results: negative
[6]
  mutagenic call: inactive; negative. reevaluation of results: inconclusive
